Laboratory results as given in patent US20060106102A1, “Napththalene derivatives which inhibit the cytokine or biological activity of microphage migration inhibitory factor (mif)” (priority 2002, published 2006).
Like-named read-outs stand apart in the source and are kept apart here. Values belong to the compound of their own block, whether it stands above or below them.

Tests used:
[1] = test system: rat adjuvant-induced arthritis (AIA) model; test: rat adjuvant-induced arthritis (AIA) model; format: in vivo, Sprague-Dawley rats; conditions: 1.0 mg/kg once daily intraperitoneal
Method: The activity of each compound was studied in the rat adjuvant-induced arthritis (AIA) model of rheumatoid arthritis. […] Male Sprague-Dawley rats (150±20 g) were used. Adjuvant artritis was induced by intradermal injection at the tail base of […] of a 10 mg/ml suspension of heat-inactivated Mycobacterium tuberculosis (Difco, Detroit, Mich.) in squalane. The compound was administered at a dose of 1.0 mg/kg body weight by once daily intraperitoneal injection on each day (treated). Control animals received an identical volume injection of vehicle (control). Joint inflammation in adjuvant arthritis was assessed clinically as follows: • i) Articular index/score: A score of 0 (no observable erythema or swelling) to 4 (severe swelling and erythema) was given for each paw. All four paws were scored, resulting in a maximum possible score of 16 for each animal (34). • ii) Synovial fluid cell number: Joints were exposed by removal of overlying skin, needle arthrocentesis performed and joint space cells obtained by closed needle lavage with 2 ml saline using a 26 gauge needle and syringe. Lavaged cells from both ankle joints were pooled, washed in saline (300 g for 5 minutes), and counted in a hemocytometer (Improved Nebauer, Weber, UK) (34).

[2] = test system: antigen-specific T cell activation (splenic T lymphocytes from mBSA-immunised mice); test: antigen-specific (mBSA) activation of splenic T lymphocytes in vitro, 3H-thymidine incorporation; format: cell-based, C57BL6/J mice; conditions: for EC50: Mus musculus, T-cell, read-out: EC50 (T cell activation suppressed by 50% compared to vehicle-only-treated cells)
Method: After a further seven (7) days mice were killed and spleens collected aseptically into Hanks buffered saline solution (HBSS). A single cell suspension was prepared in Petri dishes by flushing DMEM through the organ using a 26G needle and 2 mL syringe. The resulting cell suspension was centrifuged for 5-7 minutes and supernatant discarded. Erythrocytes were lysed using a solution containing 0.579% NH4Cl, 0.000037% EDTA, and 0.1% NaHCO3 in a 37° C. water bath. Tubes were then filled with DMEM and centrifuged for 5-7 minutes. […] The specific stimulating antigen, mBSA, was then added at 10-50 μg/mL and plates incubated for 30 hours in a 37° C., 5% CO2 incubator. Tritiated^3H-thymidine was then added at a concentration of 0.5 μCi/well for a further 18 hours. Cells were harvested on a Packard cell harvester, and the harvested material added to 750 μL/tube scintillation fluid. Scintillation counts were read on a Wallac beta-emnission counter. […] Further compounds were also tested for their ability to inhibit antigen-specific T cell activation as a marker of the inhibition of the cytokine or biological activity of MIF using this assay.

[3] = test system: IL-1-induced COX-2 expression; test: IL-1-induced COX-2 expression in S112 human dermal fibroblasts (MIF-dependent event), flow cytometry; format: cell-based; conditions: Homo sapiens, Fibroblast, IL-1 0.1 ng/ml, 6 hours, S112 cells, read-out: % inhibition of IL-1-induced COX2 expression (Effect); for inhibition at 1 µM: compound 1 uM
Method: The activity of each compound was studied in a bioassay utilising MIF-dependent activation of human dermal fibroblasts. […] IL-1-induced COX-2 expression is therefore a MIF-dependent event. […] Prior to experimentation, cells were seeded at 10^5 cells/ml in RPMI/0.1% BSA for 18 hours. […] Cells permeabilised with 0.1% saponin were sequentially labelled with a mouse anti-human COX-2 monoclonal antibody and with sheep-anti-mouse F(ab)2 fragment labelled with fluoroscein isothiocyanate. Cellular fluorescence was determined using a flow cytometer. At least 5000 events were counted for each reading, each of which was performed in duplicate, and the results expressed in mean fluorescence intensity (MFI) after subtraction of negative control-labelled cell fluorescence. The effect of each compound was determined by subtracting the IL-1+compound-treated cell MFI from the IL-1-treated cell MFI and expressed as % inhibition. In each case the % inhibition of IL-1-induced COX2 expression is shown as the mean, or mean±SEM where results are available from multiple experiments.

[4] = test system: murine peritoneal macrophage nitric oxide production; test: murine peritoneal macrophage nitric oxide production (nitrite, Greiss assay); format: cell-based, C57BL6/J mice; conditions: Mus musculus, LPS 10 ng/ml and interferon-γ 10 units/ml, 24 hours, read-out: % Nitrite concentration inhibition from control
Method: C57BL6/J male mice were injected intraperitoneally with 2ml of thioglycollate. Five (5) days later peritoneal macrophages were collected by ravaging the peritoneum of anaesthetized mice with 3 ml of cold Hanks buffered saline solution. Cells from several mice were pooled, washed and re-suspended in DMEM supplemented with 5% FCS. Cells were plated in 96 well plastic tissue culture plates at 1×10^5 cells/well. Cells were treated with compound or vehicle for 1 hour in a 5% CO2 incubator at 37° C. Cells were then treated with LPS (10 ng/ml) and recombinant human interferon-γ (10 units/ml) and incubated for 24 hours. After 24 hours, 50 μl of supernatant from each well was carefully removed and transferred to ELISA plates. The concentration of nitrite in culture supernatants was measured by the Greiss assay (41). The results were defined as the percentage inhibition of nitrite concentration in compound-treated cell culture supernatants compared to that of vehicle-treated cells.

[5] = test system: recombinant human macrophage migration inhibitory factor (MIF)-induced proliferation of S112 human dermal fibroblasts; test: MIF-induced proliferation of S112 human dermal fibroblasts, 3H-thymidine incorporation; format: cell-based; conditions: for inhibition at 0.013 µM: Homo sapiens, Fibroblast, concentration 0.013 μM, rhMIF 50 ng/ml, S112 cells, read-out: % inhibition of proliferation compared to vehicle plus rhMIF-treated cells
Method: The activity of each compound was studied in a bioassay utilising MIF-induced proliferation of human dermal fibroblasts. S112 human dermal fibroblasts were propagated in RPMI/10% foetal calf serum (FCS). Prior to experimentation, cells were seeded at 10^5 cells/ml in RPMI/0.1% BSA for 18 hours. At time point zero, culture medium was replaced with RPMI/10% FCS and treatments administered. Cells were treated with recombinant human macrophage migration inhibitory factor (MIF) 50 ng/ml (1.353×10^−9 M) and/or the compound at a 1 or 1000 molar ratio to the concentration of MIF. In some experiments the compound was combined with MIF at time point −30 minutes, prior to adding at time point zero. At time point 30 hours, cells were pulsed with […]. At time point 48 hours, cells were harvested using a semi-automated cell harvester. The radioactivity incorporated into DNA was determined by liquid scintillation counting, with results expressed as [^3H] thymidine incorporation. The proliferation of untreated cells was expressed as 100% and the effect of MIF and each compound expressed in relative %.
The activity of compound 5 was studied in a bioassay utilising MIF-induced proliferation of human dermal fibroblasts. S112 human dermal fibroblasts were propagated in RPMI/10% foetal calf serum (FCS). Prior to experimentation, cells were seeded at 10^5 cells/ml in RPMII/0.1% BSA for 18 hours. At time point zero, culture medium was replaced with RPMI/10% FCS and treatments administered. Cells were treated with recombinant human macrophage migration inhibitory factor (MIF) 50 ng/ml and/or compound 5 at a 1-1000 molar ratio to the concentration of MIF. At a time point 30 hours later, cells were pulsed with 1 μCi/well of ^3H-thymidine. At a time point 48 hours after commencement of the experiment, cells were harvested using a semi-automated cell harvester. The radioactivity incorporated into DNA was determined by liquid scintillation counting, with results expressed as [^3H] thymidine incorporation.

[6] = test system: ex vivo splenic T cell proliferation; test: ex vivo antigen-specific splenic T cell proliferation after in vivo treatment; conditions: [mBSA] 10 ug/mL; cells from compound-treated versus vehicle-treated mice
Description: In vivo administration of such a compound might be expected to exert effects on T cell responsiveness even after the T cells have been removed from exposure to the compound, that is, if T cells were studied ex vivo after in vivo treatment with the MIF antagonist compound. To measure ex vivo antigen-specific T cell activation, spleens were removed from mice with murine antigen induced arthritis, induced as above with mBSA, at day 28 after first immunisation and a single cell suspension prepared in DMEM containing 5% FCS and 0.05% 2-mercaptoethanol. 1×10^5 cells /200 μl were cultured in triplicate in the presence or absence of mBSA (0.1, 1.0, 10 μg /ml) in 96-well plates for 48 hours (37° C., 5% CO2) The T cell proliferation response was determined by measuring ^3H-thymidine incorporation during the final 18 hr. The cells were harvested and radioactivity incorporation into the DNA was measured with a Wallac 1409 liquid scintillation counter. The means of each triplicate culture were calculated. Each experiment comprised at least three individual animals and the results presented represent the mean±SEM of groups of animals in each experiment. The percentage inhibition of T cell proliferation was calculated using the result of the ^3H-thymidine incorporation of cells from compound-treated animals divided by the ^3H-thymidine incorporation of cells from vehicle-treated animals.

[7] = test system: murine endotoxic shock model (LPS); test: murine endotoxic shock model, serum cytokines by ELISA; format: in vivo; conditions: mice
Method: The activity of 6,7-dihydroxynaphthalene-3-sulfonic acid (compound 6) was studied in the murine endotoxic shock model. This model has been previously shown to be dependent on MIF (35). […] Endotoxaemia was induced by intra-peritoneal injection of lipopolysaccharide (LPS) (15 mg/kg) in 400 μl saline. Mice were treated with a saline solution (control) only, a saline solution and LPS, or LPS and 6,7-dihydroxynaphthalene-2-sulfonic acid (compound 6) at a dose of 15 mg/kg body weight by intra-peritoneal injection at 24 hours, 12 hours and 1 hour before intra-peritoneal LPS injection. After 1.5 or 6 hours mice were humanely killed by CO2 inhalation then neck dislocation. Serum was obtained from blood obtained by cardiac puncture prior to death and measured for cytokines including interleukin 1 (IL-1) and interleukin 6 (IL-6) by ELISA. The production of IL-1 and IL-6 has been previously shown to be dependent on MIF (36).
The effect of compounds was further tested under a variety of conditions in animals exposed to endotoxic shock induced as above by the injection of 15 mg/kg LPS by intraperitoneal injection. In each case, compounds were administered by intraperitoneal injection at a dose of 15 mg/kg. Compound administration was associated with reductions in serum cytokine concentration under a variety of administration regimens.

[8] = test system: murine antigen-induced arthritis; test: murine antigen-induced arthritis, histological score; format: in vivo, C57BL6/J mice; conditions: 15 mg/kg i.p. once per 24 hours; histology at day 28; mice
Method: Antigen-induced arthritis was induced in mice. C57BL6/J male mice, aged 7-10 weeks old, were immunized on day 0 with 200 μg methylated BSA (mBSA) emulsified in 200 μl of Freund's complete adjuvant (FCA) injected subcutaneously into the flank skin. Mice were treated with compound 5, administered by intraperitoneal injection, once per 24 hours at a dose of 15 mg/kg body weight. After seven days, mice received 100 μg “mBSA and 100 μl FCA by intradermal injection at the base of the tail. After a further 14 days, arthritis was induced by intra-articular injection of 30 μg mBSA in 10 μl of sterile saline into the left knee, the right knee being injected with sterile saline alone.
Arthritis was analysed histologically at day 28 after first immunisation. Knee joints were dissected and fixed in 10% buffered formalin for 7 days. Fixed tissues were decalcified for 3 weeks in 15% ethylene-diamine-tetra-acetic acid (EDTA), dehydrated and embedded in paraffin. Sagittal sections (5 μm) of the knee joint were stained with Safranin-O and counterstained with fast green /iron hematoxylin. Histological sections were scored from 0 to 3 for four parameters: Synovitis was defined as hyper-cellularity of the synovium including pannus formation. Joint space exudate was identified as leukocytes, discretely or in aggregates, in the joint space. […]

EC50 ([2]; mBSA 10 μg/ml): 18.1 µM
EC50 ([2]; mBSA 50 μg/ml): 52 µM
Structure (SMILES): COc1cc2ccccc2cc1OC [Compound 2, 6,7-dimethoxynaphthalene]
arthritis severity (articular index, synovial fluid cell number; FIGS. 5 and 6) [1]: significant inhibition of arthritis severity
inhibition at 0.1 µM ([3]; compound 0.1 uM): 11.6%
inhibition at 25 µM ([4]; 25 uM): 5.8%
inhibition at 50 µM ([4]; 50 uM): 8.5%
inhibition at 100 µM ([4]; 100 uM): 13.6%

EC50 ([2]; mBSA 10 μg/ml): 14.8 µM
EC50 ([2]; mBSA 50 μg/ml): 49.5 µM
melting point: 248 to 250 °C
Structure (SMILES): COc1cc2ccc(C(=O)O)cc2cc1OC [Compound 4, 6,7-dimethoxy-2-naphthanoic acid]
effect on MIF-induced proliferation of human dermal fibroblasts (FIGS. 1 and 2) ([5]; 1M ratio equivalent to MIF 50 ng/ml): inhibition of MIF-induced proliferation
inhibition at 0.013 µM [5]: 24%
% inhibition of ex vivo splenic T cell proliferation [6]: 18%
inhibition at 1 µM [3]: 2.7%

Structure (SMILES): O=C(O)c1ccc2c([N+](=O)[O-])c(O)ccc2c1 [Compound 23, 6-hydroxy-5-nitro-2-napthoic acid]
serum IL-1, LPS plus compound ([7]; compound 15 mg/kg i.p. at −16 h before LPS 15 mg/kg i.p.): 58 ± 13 ng/mL
EC50 ([2]; mBSA 10 μg/ml): > 100 µM
EC50 ([2]; mBSA 50 μg/ml): > 100 µM
effect on antigen-specific T cell activation (FIG. 10) ([2]; increasing concentrations, mBSA 50 μg/mL): dose-dependent and statistically significant inhibitory effect
inhibition at 10 µM ([3]; compound 10 uM): 8%
individual parameters of arthritis (synovitis, joint space exudate, cartilage degradation, bone damage; FIG. 11b) [8]: Clinically significant reductions in the severity of all individual parameters of arthritis
total arthritis score (FIG. 11a) [8]: clinically significant reduction in total arthritis score

Structure (SMILES): O=S(=O)(O)c1ccc2cc(O)ccc2c1 [Compound 24, 6-Hydroxy-2-naphthalene-sulfonic acid]
Serum IL-6, LPS plus compound ([7]; compound 15 mg/kg i.p. at −24 h, −1 h before LPS 15 mg/kg i.p.): 144 ± 18 ng/mL
inhibition at 0.013 µM [5]: 18%
inhibition at 1 µM [3]: 8.2%
